Measurements reported in patent US20140193529A1, “Modulation of Thymosin Beta-4 in Skin” (AVON PRODUCTS, INC., priority 2013, published 2014).

Key:
[1] = system: thymosin beta-4 (TMSB4X) mRNA; experiment: Thymosin beta-4 stimulation assay (QUANTIGENE multiplex mRNA assay); type: cell-based; conditions: human dermal fibroblasts, 24 hours
Experimental: Normal human dermal fibroblasts were cultured in 96-well tissue culture-treated plates, containing appropriate culture medium. Stock solutions of actives were made in an appropriate vehicle (water or DMSO). Cells were treated with test material or respective vehicle control diluted in growth medium for 24 hours in a humidified 37° C. incubator with 10% CO2. After incubation, growth medium from each plate was removed and 100 μL, of lysis buffer was added to the wells and placed in 37° C. incubator with 10% CO2 for 30 minutes. At the end of incubation, the cell lysates were collected in freezer plates and placed in −80° C. freezer until analysis. Changes in mRNA for thymosin beta-4 (TMSB4X) after treatment were analyzed using Affymetrix's QUANTIGENE® multiplex assay that employs a branched DNA signal amplification technology, following the manufacturer's instructions (Affymetrix, Calif.). Percent increase in mRNA for thymosin beta-4 (TMSB4X) was calculated by comparing the test results to the control. The percent up-regulation is converted to a scaled score as shown below in Table 2.
A variety of botanical extracts were tested for the ability to up-regulate Thymosin beta-4 according to the method of Example 1. The concentrations of each extract are provided based on the dry weight of the given plant extract, by which is meant the weight of the extract after volatile extraction solvents have been removed. The cells tested were primary human dermal fibroblasts.
Synthetic compounds 1-4 were also tested as active agents for the ability to upregulate thymosin beta-4 according to the method of Example 1.

thymosin beta-4 = experiment: Mode of operation of retinol in human skin
[2] = system: IL-8 gene and protein expression; experiment: Anti-inflammatory effect of TB-4 in TNF-alpha treated human dermal fibroblasts (qPCR, ELISA, PCR array); type: cell-based
Experimental: Commercially obtained human dermal fibroblasts were treated with tumor necrosis factor alpha for 6 hours to induce inflammation. Cells were either pre-treated with recombinant TB-4 or control media to assess its anti-inflammatory effect. Cell lysates and media were collected and qPCR and ELISA were performed to assess IL-8 gene and protein expression. Human cytokines and chemokines PCR array was also performed to investigate the impact of TB-4 on the expression profile of key secreted proteins in the inflammation pathway. […] Therefore, modulating endogenous TB-4 could be adopted as an avenue to battle inflammatory skin damage resulting from skin chronological aging and photoaging.

Compound: Cc1ccc(C(=O)CC(NCc2ccccc2)C(=O)O)cc1 (stereo not shown) [Compound 2]
- Thymosin beta-4 (TMSB4X) Degree of Upregulation ([1]; compound Conc. 0.0001%): + (21-40)

Compound: CC1=C(/C=C/C(C)=C/C=C/C(C)=C/CO)C(C)(C)CCC1 [retinol]
- upregulation of thymosin beta-4 (thymosin beta-4): potent upregulator

Compound: CCc1c(C(=O)N2CCCC2)cnn1-c1ccccc1Cl [Compound 4]
- Thymosin beta-4 (TMSB4X) Degree of Upregulation ([1]; compound Conc. 0.00001%): + (21-40)

Compound: TB-4: recombinant thymosin beta-4, 43 amino acid peptide, 4.9 kDa (SDKPDMAEIEKFDKSKLKKTETQEKNPLPSKETIEQEKQAGES; UniProt P62328 2-44, looked up)
- regulation of key cytokines and chemokines genes ([2]; human cytokines and chemokines PCR array, TNF-alpha treated fibroblasts): significantly regulates
- suppression of IL-8 protein secretion caused by TNF-alpha stimulation ([2]; pre-treatment with recombinant TB-4, TNF-alpha 6 hours, ELISA): greater than 50%
- suppression of IL-8 gene expression caused by TNF-alpha stimulation ([2]; pre-treatment with recombinant TB-4, TNF-alpha 6 hours, qPCR): greater than 50%

Compound: CCOCCCNC(=O)c1cc(NC(=O)/C=C/c2ccccc2)ccc1N1CCC(Cc2ccccc2)CC1 [Compound 1]
- Thymosin beta-4 (TMSB4X) Degree of Upregulation ([1]; compound Conc. 0.001%): ++ (41-60)
